Reference: ChEMBL document CHEMBL1201862, “PubChem BioAssay data set” (2004)
One block for each compound: values may come before it. Activity calls are given as the source filed them.

What was measured:
[1] = target: Eukaryotic translation initiation factor 4H (Homo sapiens, UniProt Q15056); test: eIF4H inhibition in translation initiation, SAR follow-up (AID 435011); type: functional
[2] = target: Polyadenylate-binding protein 1 (Homo sapiens, UniProt P11940); test: PABP inhibition in translation initiation, SAR follow-up (AID 435018); type: functional
T-cell = test: inhibitors of CD8+ T cell–vesicle binding, dose response, mouse 2C CD8+ T cells, flow cytometry (AID 485284); type: functional
Integrin alpha-L = Integrin alpha-L (Mus musculus, UniProt P24063); test: modulators of CD8 T cell-vesicle binding, dose response, powder samples, mouse 2C CD8+ cells (AID 504565); type: functional
[3] = target: NACHT, LRR and PYD domains-containing protein 1 (Homo sapiens, UniProt Q9C000); test: NALP1 inhibitors in yeast, dose response, luminescent (AID 488860); type: functional
Saccharomyces cerevisiae = test: NALP1 inhibitor project selectivity study, Caspase-1/ASC signal blockade IC50 in S. cerevisiae (AID 488863); type: functional, organism-based
Hexokinase = Hexokinase (Trypanosoma brucei, UniProt Q38C41); test: Confirmation assay for inhibitors of Trypanosoma brucei hexokinase 1-Analogue-first series. [Related pubchem assays (depositor defined):AID1430, AID1632, AID2516, AID2560, AID2579, AID2600, AID449725, AID492951]; type: functional
[4] = target: T1, Tyrosine-protein phosphatase non-receptor type 7 (Homo sapiens, UniProt P35236); test: redox-dependent HePTP inhibition, mechanism study, biochemical, fluorescence (AID 2068); type: functional
T1 sequence (P35236 whole entry): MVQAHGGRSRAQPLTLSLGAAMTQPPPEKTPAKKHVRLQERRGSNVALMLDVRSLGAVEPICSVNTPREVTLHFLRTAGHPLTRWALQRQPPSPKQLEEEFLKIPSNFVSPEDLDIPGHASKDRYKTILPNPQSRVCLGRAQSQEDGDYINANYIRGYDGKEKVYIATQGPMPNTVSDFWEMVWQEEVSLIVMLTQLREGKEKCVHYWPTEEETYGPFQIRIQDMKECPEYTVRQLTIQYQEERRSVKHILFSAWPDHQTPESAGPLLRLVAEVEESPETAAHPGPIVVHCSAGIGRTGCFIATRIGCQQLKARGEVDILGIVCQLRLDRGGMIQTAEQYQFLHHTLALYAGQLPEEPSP

Caspase-7 = target: T2, Caspase-7 (Homo sapiens, UniProt P55210); test: procaspase-7 activators, dose response, counter-screen for procaspase-3 activator project, biochemical, absorbance (AID 489013)
T2 sequence (P55210 whole entry): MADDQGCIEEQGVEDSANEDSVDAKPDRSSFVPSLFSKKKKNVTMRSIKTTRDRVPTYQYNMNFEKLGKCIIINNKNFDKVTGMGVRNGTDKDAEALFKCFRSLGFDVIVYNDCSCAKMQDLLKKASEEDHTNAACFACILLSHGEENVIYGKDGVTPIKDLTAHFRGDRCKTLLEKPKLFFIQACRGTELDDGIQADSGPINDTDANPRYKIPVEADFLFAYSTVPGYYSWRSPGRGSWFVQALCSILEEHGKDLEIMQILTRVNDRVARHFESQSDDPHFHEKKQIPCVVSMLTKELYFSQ

[5] = test system: Streptococcus sp. 'group A'; test: growth inhibition of control SK(-) GAS strain, dose response, counter-screen for streptokinase expression inhibitor project, luminescence, kanamycin, BacTiterGlo, confirmation (AID 1900); type: functional, organism-based
Caspase-3 = target: T3, Caspase-3 (Homo sapiens, UniProt P42574); test: procaspase-3 activators, dose response, biochemical, absorbance (AID 489014)
T3 sequence (P42574 whole entry): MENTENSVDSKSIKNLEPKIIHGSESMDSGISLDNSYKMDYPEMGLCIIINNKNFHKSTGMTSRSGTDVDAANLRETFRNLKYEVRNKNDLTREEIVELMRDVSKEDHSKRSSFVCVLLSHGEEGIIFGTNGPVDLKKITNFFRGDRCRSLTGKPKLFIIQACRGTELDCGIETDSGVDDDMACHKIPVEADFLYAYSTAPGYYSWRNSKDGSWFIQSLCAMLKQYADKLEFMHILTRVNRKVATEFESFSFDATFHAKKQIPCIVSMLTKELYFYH

Streptococcus = test: Group A Streptococcus viability loss, dose response, counter-screen for streptokinase expression inhibitor project, luminescence, BacTiterGlo (AID 1915); type: functional, organism-based;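 also: potency for reduction of bacterial viability or growth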

Sequence of NACHT, LRR and PYD domains-containing protein 1 (Q9C000 1-1212 limits assumed): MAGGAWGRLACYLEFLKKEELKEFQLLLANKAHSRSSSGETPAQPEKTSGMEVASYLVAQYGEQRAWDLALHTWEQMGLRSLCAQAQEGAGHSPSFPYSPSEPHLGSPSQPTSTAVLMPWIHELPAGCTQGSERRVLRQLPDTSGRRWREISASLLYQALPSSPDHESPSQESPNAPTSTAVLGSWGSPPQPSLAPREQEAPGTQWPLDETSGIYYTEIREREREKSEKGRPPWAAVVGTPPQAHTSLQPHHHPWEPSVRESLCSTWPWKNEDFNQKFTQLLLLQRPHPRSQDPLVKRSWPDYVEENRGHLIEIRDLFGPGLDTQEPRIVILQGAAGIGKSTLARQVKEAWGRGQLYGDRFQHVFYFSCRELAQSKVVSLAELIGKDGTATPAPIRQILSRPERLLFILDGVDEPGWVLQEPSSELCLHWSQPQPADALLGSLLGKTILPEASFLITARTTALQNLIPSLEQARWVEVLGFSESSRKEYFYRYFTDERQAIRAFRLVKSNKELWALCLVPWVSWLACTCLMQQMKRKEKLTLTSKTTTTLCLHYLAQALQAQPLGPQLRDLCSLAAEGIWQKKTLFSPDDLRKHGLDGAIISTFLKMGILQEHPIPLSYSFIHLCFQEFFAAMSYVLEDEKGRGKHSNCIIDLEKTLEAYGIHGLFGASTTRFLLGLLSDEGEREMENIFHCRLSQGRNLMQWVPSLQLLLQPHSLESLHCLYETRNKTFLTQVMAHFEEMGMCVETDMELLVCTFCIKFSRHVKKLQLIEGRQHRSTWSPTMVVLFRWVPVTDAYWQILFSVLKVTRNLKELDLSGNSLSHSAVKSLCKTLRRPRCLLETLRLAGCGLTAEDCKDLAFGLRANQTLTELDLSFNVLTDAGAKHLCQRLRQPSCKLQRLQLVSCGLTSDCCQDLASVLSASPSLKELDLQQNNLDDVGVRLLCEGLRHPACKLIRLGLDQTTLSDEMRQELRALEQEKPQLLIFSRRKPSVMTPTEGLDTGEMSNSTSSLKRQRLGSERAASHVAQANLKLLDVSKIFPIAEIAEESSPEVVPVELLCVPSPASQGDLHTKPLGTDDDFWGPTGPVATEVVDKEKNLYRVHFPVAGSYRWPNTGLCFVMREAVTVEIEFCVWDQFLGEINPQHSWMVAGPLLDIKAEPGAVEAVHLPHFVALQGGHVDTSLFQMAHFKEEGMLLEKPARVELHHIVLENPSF
Sequence of NACHT, LRR and PYD domains-containing protein 1 (Q9C000 1213-1473 limits assumed): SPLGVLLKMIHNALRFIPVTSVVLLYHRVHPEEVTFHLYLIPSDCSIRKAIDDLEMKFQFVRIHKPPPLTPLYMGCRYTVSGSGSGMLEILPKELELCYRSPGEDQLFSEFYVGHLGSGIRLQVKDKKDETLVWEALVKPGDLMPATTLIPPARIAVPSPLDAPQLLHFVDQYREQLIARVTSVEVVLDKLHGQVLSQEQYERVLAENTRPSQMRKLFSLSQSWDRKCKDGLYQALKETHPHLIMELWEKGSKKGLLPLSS
Sequence of Integrin alpha-L (P24063 whole entry, the tested form may be a part): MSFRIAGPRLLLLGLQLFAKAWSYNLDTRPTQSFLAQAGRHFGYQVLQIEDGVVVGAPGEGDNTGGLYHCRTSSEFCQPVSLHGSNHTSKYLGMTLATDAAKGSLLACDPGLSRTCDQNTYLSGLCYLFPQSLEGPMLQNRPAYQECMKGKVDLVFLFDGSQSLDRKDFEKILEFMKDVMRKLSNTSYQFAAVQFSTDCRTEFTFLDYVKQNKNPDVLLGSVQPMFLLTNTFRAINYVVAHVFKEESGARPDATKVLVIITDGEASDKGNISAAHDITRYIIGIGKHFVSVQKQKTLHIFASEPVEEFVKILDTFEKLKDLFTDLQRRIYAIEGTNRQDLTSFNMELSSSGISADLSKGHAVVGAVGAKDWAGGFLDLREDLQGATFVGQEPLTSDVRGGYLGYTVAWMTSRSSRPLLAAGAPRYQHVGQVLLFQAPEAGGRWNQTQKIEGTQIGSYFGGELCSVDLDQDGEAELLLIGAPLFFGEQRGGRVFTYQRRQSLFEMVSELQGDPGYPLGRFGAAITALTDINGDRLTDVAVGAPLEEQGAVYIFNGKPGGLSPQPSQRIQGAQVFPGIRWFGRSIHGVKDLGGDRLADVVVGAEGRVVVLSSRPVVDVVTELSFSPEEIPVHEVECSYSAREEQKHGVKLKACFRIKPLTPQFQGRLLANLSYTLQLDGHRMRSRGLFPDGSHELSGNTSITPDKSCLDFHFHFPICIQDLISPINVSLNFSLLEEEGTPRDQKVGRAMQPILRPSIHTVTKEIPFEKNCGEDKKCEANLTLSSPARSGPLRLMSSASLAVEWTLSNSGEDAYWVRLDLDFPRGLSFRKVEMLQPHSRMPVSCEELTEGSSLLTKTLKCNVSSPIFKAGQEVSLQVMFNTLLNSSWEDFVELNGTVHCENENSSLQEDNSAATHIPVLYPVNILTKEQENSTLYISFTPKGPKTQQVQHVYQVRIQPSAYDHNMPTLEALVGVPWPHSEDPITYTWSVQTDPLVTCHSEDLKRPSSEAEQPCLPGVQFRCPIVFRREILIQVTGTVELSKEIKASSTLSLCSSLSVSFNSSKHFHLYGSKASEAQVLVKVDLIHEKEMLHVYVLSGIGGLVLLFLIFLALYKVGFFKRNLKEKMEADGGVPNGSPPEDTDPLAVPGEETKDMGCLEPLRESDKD
Sequence of Polyadenylate-binding protein 1 (P11940 whole entry): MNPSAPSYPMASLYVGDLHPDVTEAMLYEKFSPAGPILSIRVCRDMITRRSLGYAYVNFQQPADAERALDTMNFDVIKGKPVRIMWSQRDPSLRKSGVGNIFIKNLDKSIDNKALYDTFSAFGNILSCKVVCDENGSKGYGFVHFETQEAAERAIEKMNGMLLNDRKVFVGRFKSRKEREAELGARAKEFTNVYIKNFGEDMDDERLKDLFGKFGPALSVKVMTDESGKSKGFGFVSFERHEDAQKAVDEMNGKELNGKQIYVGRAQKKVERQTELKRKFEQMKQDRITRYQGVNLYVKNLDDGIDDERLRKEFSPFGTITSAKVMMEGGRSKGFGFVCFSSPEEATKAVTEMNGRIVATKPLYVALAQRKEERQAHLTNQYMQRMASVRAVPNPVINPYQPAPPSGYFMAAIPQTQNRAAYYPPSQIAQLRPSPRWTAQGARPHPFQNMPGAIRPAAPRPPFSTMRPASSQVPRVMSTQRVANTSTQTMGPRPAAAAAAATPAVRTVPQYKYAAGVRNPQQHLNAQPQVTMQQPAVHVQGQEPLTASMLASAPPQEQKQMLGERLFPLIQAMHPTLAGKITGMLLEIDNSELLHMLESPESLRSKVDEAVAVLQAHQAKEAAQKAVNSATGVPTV
Sequence of Hexokinase (Q38C41 whole entry): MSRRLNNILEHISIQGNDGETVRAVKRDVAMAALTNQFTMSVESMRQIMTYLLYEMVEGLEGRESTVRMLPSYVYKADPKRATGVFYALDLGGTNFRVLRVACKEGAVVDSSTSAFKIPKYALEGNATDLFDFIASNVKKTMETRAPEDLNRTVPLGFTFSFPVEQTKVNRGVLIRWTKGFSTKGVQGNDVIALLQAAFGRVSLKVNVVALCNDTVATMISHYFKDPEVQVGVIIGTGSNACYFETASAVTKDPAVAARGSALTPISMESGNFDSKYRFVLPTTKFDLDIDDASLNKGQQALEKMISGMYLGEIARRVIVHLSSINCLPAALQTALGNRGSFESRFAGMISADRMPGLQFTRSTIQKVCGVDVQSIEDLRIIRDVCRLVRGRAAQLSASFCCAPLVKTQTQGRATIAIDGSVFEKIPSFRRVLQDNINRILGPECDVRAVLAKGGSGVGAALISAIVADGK

Compound: COc1cccc(N=C2SC(C(=O)Nc3ccc(F)cc3)CC(=O)N2C)c1 (configuration not stated)
IC50 [1]: > 100 µM (inactive) | IC50 [2]: > 100 µM (inactive)

Compound: O=C(O)C1CCC(Cn2c(SCc3cc(=O)n4cc(Cl)ccc4n3)nc3ccsc3c2=O)CC1 (configuration not stated)
EC50 (T-cell): 18.2 µM (active) | EC50 (Integrin alpha-L): 51.9 µM (inactive)

Compound: CCCOc1ccccc1NC(=O)/C=C/C(N)=O
IC50 [3]: 8.5 µM (active) | IC50 (Saccharomyces cerevisiae): 5.33 µM (active)

Compound: O=C(Cn1sc2cc(F)ccc2c1=O)Nc1ccccc1
IC50 (Hexokinase): 4.34 µM (active)

IC50 [4]: 0.816 µM (active)
Compound: CNC(=O)Nc1ccc2nc(-c3ccco3)c(-c3ccco3)nc2c1

Compound: O=C1C2C(c3ccccc3)=NN(c3ccccc3)C2C(=O)N1c1ccccc1 (configuration not stated)
EC50 (Caspase-7): > 85.3 µM (inactive) | EC50 [5]: 1.02 µM (active) | EC50 (Caspase-3): > 85.3 µM (inactive) | EC50 (Streptococcus): 5.11 µM (active)
